Values quoted from earlier work as cited in paper PMC6156206 (Molecular Imaging, 2018).

Legend:
[1] = tested on: P-gp/BCRP
[2] = tested on: BRAF^V600E-mutant melanoma xenografts; settings: oral, 30-100 mg/kg, twice daily, without any adverse effects
[3] = phase 1/1b safety profile analysis

SMILES	Substrate for the drug efflux transporter system P-gp/BCRP [1]	Antitumor effect in xenografts [2]	Tolerable dose in patients [3]
CNC(=O)c1cc(Oc2ccc(NC(=O)Nc3ccc(Cl)c(C(F)(F)F)c3)cc2)ccn1 [sorafenib]	substrate for the drug efflux transporter system P-gp/BCRP		
COc1cc2ncnc(Oc3cccc(NC(=O)Nc4cc(C(C)(C)C(F)(F)F)on4)c3)c2cc1OC.Cl [CEP-32496, 1-(3-(6,7-dimethoxyquinazolin-4-yloxy)phenyl)-3-(5-(1,1,1-trifluoro-2-methylpropan-2-yl)isoxazol-3-yl)urea hydrochloride]		tumor stasis and regression	up to 350 mg/d
